# From BindingDB's records for doi:10.7270/Q23F4N3R (Burnham Center For Chemical Genomics, 2011)
# Structures can show the parent of a compound that is named as a salt.
# Test: hexokinase 1 inhibition, dose response, selectivity assay for HKDC1 inhibitor project, biochemical (AID 504763)
# Conditions: not given
row,SMILES,IC50
1,C=CCN1C=C2C(=O)C(C)(OC(=O)CCC(=O)OC)C(=O)C(Br)=C2C=C1c1ccc(OC)cc1 (stereo unspecified),> 80 µM
2,"COc1ccc2[nH]c3c4c(ccc3c2c1)C(=O)C=CC4=O [8-methoxy-11H-benzo[a]carbazole-1,4-dione]",> 80 µM
3,NC1=C(Br)C(=O)c2ncccc2C1=O,13.8 µM
4,"CCOc1ccc(/C=C2/SC(=S)N(CCC(=O)Nc3ccc(C(=O)O)cc3)C2=O)cc1 [4-[3-[(5E)-5-[(4-ethoxyphenyl)methylidene]-4-oxo-2-sulfanylidene-1,3-thiazolidin-3-yl]propanoylamino]benzoic acid]",> 80 µM
5,Oc1ccc(CN=Nc2ncc(Br)cn2)c(O)c1,> 80 µM
6,CC(Nc1cc(O)c2cccnc2c1O)C(=O)c1ccccc1 (stereo unspecified),75.1 µM
7,COc1ccc2cc(CCNC(=O)c3ccc(S(=O)(=O)N4CCCC4)cc3)c(O)nc2c1 [SMR000805966],7.34 µM
8,"CCC1=NN2C(=N)/C(=C\c3ccc(OCc4cc(=O)n5nc(CC)sc5n4)c(OC)c3)C(=O)N=C2S1 [2-ethyl-7-({4-[(E)-(2-ethyl-5-imino-7-oxo-5H-[1,3,4]thiadiazolo[3,2-a]pyrimidin-6(7H)-ylidene)methyl]-2-methoxyphenoxy}methyl)-5H-[1,3,4]thiadiazolo[3,2-a]pyrimidin-5-one]",> 80 µM
9,COc1ccc(NC(=O)Cc2c[nH]c3ccccc23)cc1S(=O)(=O)N1CCCCC1 [2-(1H-indol-3-yl)-N-(4-methoxy-3-piperidin-1-ylsulfonylphenyl)acetamide],> 80 µM
10,"CCN(CC)C(=O)c1ccc(C(=O)c2c(C)cc(C)cc2C)cc1 [N,N-diethyl-4-[oxo-(2,4,6-trimethylphenyl)methyl]benzamide]",> 80 µM
11,CCc1ccc(S(=O)(=O)N=C2C=C(Nc3ccc(C(=O)O)cc3)C(=O)c3ccccc32)cc1,6.89 µM
12,O=C1C(SCCO)=C(SCCO)C(=O)c2ccccc21 [NSC-95397],8.11 µM
13,"O=C(CSc1nnc(CCCN2C(=O)c3cccc4cccc(c34)C2=O)n1-c1ccccc1)N1CCN(CCO)CC1 [2-[3-[5-[[2-[4-(2-hydroxyethyl)-1-piperazinyl]-2-oxoethyl]thio]-4-phenyl-1,2,4-triazol-3-yl]propyl]benzo[de]isoquinoline-1,3-dione]",7.31 µM
14,O=C(COC(=O)c1n[nH]c2ccccc12)c1cccc(Br)c1 [[2-(3-bromophenyl)-2-oxoethyl] 1H-indazole-3-carboxylate],> 80 µM
15,"CCn1cc(C(=O)NCc2ccc3c(c2)OCO3)c2cc(OC)c(OC)cc2c1=O [2-ethyl-1-keto-6,7-dimethoxy-N-piperonyl-isoquinoline-4-carboxamide]",18.9 µM
16,"CNCc1ccccc1Sc1cc(O)ccc1O [(Z)-2-butenedioic acid;2-[[2-(methylaminomethyl)phenyl]thio]benzene-1,4-diol]",4.58 µM
17,CC(=O)N(C1=C(Cl)C(=O)c2ccccc2C1=O)c1ccc(C(=O)O)cc1 [MLS001196720],8.68 µM
18,CC(C)c1nc2oc3c(NCCO)ncnc3c2c2c1COC(C)(C)C2 [SMR000439744],2.82 µM
19,CCOc1ccc2c(c1)C(NC(C)=O)C(=O)N2CCN1CCOCC1 (stereo unspecified) [N-[5-ethoxy-1-(2-morpholin-4-ylethyl)-2-oxo-3H-indol-3-yl]acetamide;hydrochloride],> 80 µM
20,"CC(C)(C)c1c(Cl)c(O)c(-c2ccccc2)c(=O)n1-c1ccccc1 [2-tert-butyl-3-chloranyl-6-oxidanyl-1,5-diphenyl-pyridin-4-one]",> 80 µM
21,O=C1c2ccccc2-c2onc3ccc(Oc4ccccc4)c1c23 [MLS000525578],> 80 µM
22,Cc1nc2c(c(=O)c3ccccc3n2C)c(=O)n1-c1ccccc1,15.3 µM
23,CC(=O)NC1C(=O)N(CCN2CCOCC2)c2ccc(Cl)cc21 (stereo unspecified) [MLS001215975],> 80 µM
24,COc1ccc(OC)c(N2C(=O)C(=Cc3ccco3)C(=O)NC2=S)c1 [MLS001197216],> 80 µM
25,CCCC(=O)NC1=C(Cl)C(=O)c2ccccc2C1=O,3.06 µM
26,O=c1c2ccccc2nc(/C=C/c2cccnc2)n1CCc1ccccc1,> 80 µM
27,Cc1cc2cc(CCNC(=O)c3ccc(S(=O)(=O)N4CCOCC4)cc3)c(O)nc2cc1C [SMR000025588],11.5 µM
28,CCc1ccc2c(c1)C(NC(C)=O)C(=O)N2CCN1CCOCC1 (stereo unspecified) [MLS001215951],> 80 µM

row,SMILES,IC50
1,Oc1c(Cl)c(N=CCc2ccccc2)c(O)c2ccccc12 [MLS002608293],18.5 µM
2,Cn1c2ccccc2c(=O)c2c(=O)n(-c3ccc(F)cc3)c(-c3cccs3)nc21 [SMR000439524],2.5 µM
3,"CCCCNC(=O)c1sc(=S)n2c1[nH]c(=O)c1ccccc12 [N-butyl-5-oxo-1-thioxo-4,5-dihydro[1,3]thiazolo[3,4-a]quinazoline-3-carboxamide]",16.1 µM
4,"CC(C)(C=O)C1=CC(=O)c2ccccc2C1=O [2-(1,4-dioxo-2-naphthalenyl)-2-methylpropanal]",> 80 µM
5,CCOC(=O)CSc1nc2ccc(C)cc2n2cnnc12 [MLS000999625],12.9 µM
6,CCOC(=O)c1ccc(NC(=O)CSc2ccc(-c3ccccn3)nn2)cc1 [ethyl 4-[2-(6-pyridin-2-ylpyridazin-3-yl)sulfanylethanoylamino]benzoate],2.15 µM
7,CC[C@H](C)C=C(C)/C=C/C1=CC2=C(Cl)C(=O)[C@@](C)(OC(C)=O)C(=O)C2=CO1 [SMR000470870],> 80 µM
8,O=C(/C=C/c1cccs1)Nc1scc(-c2ccccc2)c1C(=O)O [SMR000364116],> 80 µM
9,"Cc1ccc(S(=O)(=O)N=C2C=C(Nc3cccc(C(=O)O)c3)C(=O)c3ccccc32)c(C)c1 [3-[[(4E)-4-(2,4-dimethylphenyl)sulfonylimino-1-oxo-2-naphthalenyl]amino]benzoic acid]",11 µM
10,"CCOc1ccc(-n2c(C)cc(C(=O)CCl)c2C)cc1 [2-chloranyl-1-[1-(4-ethoxyphenyl)-2,5-dimethyl-pyrrol-3-yl]ethanone]",> 80 µM
11,CC(=O)NC1C(=O)N(CCN2CCOCC2)c2ccc(Br)cc21 (stereo unspecified) [MLS001215987],> 80 µM
12,COC(=O)c1cc(C)nc2c1C(=O)C(=O)C=C2N1CCOCC1 [MLS001208989],16.6 µM
13,[H]/N=C(\N/C(=N/[H])NCCCCCCNC(=N)NC(=N)Nc1ccc(Cl)cc1)Nc1ccc(Cl)cc1 [2-[amino-[6-[[amino-[(E)-[amino-(4-chloroanilino)methylidene]amino]methylidene]amino]hexylimino]methyl]-1-(4-chlorophenyl)guanidine],> 80 µM
14,Cc1ccc(S(=O)(=O)N=C2C=C(Nc3cccc(C(=O)O)c3)C(=O)c3ccccc32)cc1 [MLS000948051],6.79 µM
15,CCCc1nc2oc3c(OC)ncnc3c2c2c1COC(C)(C)C2 [MLS000559436],18.5 µM
16,NC(=O)C1CCN(C2=C(Cl)C(=O)c3ccccc3C2=O)CC1 [SMR000180199],> 80 µM
17,Oc1nc2ccccc2n2c(-c3ccccc3)nnc12 [SMR000162081],19 µM
18,O=C1C(Nc2ccccc2)=CC(=NS(=O)(=O)c2cccs2)c2ccccc21 [MLS000374486],6.56 µM
19,O=C(O)CSc1cc(NS(=O)(=O)c2ccc(Cl)cc2)c2ccccc2c1O [2-[4-[(4-chlorophenyl)sulfonylamino]-1-hydroxynaphthalen-2-yl]sulfanylacetic acid],16.7 µM
20,COC1=CC(=O)C=C(OC)C1=O [MLS002207260],3.54 µM
21,"O=C(CSc1nnc(-c2cccnc2)[nH]1)Nc1ccnc2ccccc12 [2-[(5-pyridin-3-yl-1H-1,2,4-triazol-3-yl)sulfanyl]-N-quinolin-4-yl-ethanamide]",11 µM
22,"CN1c2ccc(C=O)c3c(C=O)ccc(c23)N(C)C1(C)C [1,2,2,3-tetramethyl-2,3-dihydro-1H-perimidine-6,7-dicarbaldehyde]",18.8 µM
23,COC1=CC(=O)c2c(ccc3ncnc(N)c23)C1=O [MLS002701780],1.83 µM
24,N#CC(C(=O)CCl)c1nc2c(s1)CCc1ccccc1-2 (stereo unspecified) [MLS001171530],38.3 µM
25,"O=C1C(=O)c2c(C(=O)c3ccccc3)coc2-c2ccccc21 [3-(phenylcarbonyl)benzo[g][1]benzofuran-4,5-dione]",> 80 µM
26,"O=C(O)COc1ccc(C=NNC(=O)c2ccc(-c3csc(Nc4ccc(Cl)cc4)n3)cc2)cc1 [2-[4-[[[4-[2-(4-chloroanilino)-1,3-thiazol-4-yl]benzoyl]hydrazinylidene]methyl]phenoxy]acetic acid]",> 80 µM
27,Cc1nc2c(c(=O)c3ccccc3n2C)c(=O)n1-c1ccc(F)cc1 [SMR000439525],8.78 µM

# Same assay, conditions: inactive by the depositor's call
row,SMILES,IC50
1,"Cc1oc2c(c1C(=O)c1ccc(Cl)cc1)C(=O)C(=O)c1ccccc1-2 [3-(4-Chloro-benzoyl)-2-methyl-naphtho[1,2-b]furan-4,5-dione]",40 µM
2,Cc1cc(C)c(S(=O)(=O)N=C2C=C(Nc3ccc(C(=O)O)cc3)C(=O)c3ccccc32)c(C)c1 [MLS000948031],27.3 µM
3,O=C1C(Cl)=C(N2CCCCC2)C(=O)C(Cl)=C1c1cnc(N2CCCCC2)s1 [MLS000550549],71.6 µM
4,"CCOC(=O)C1=C(Cc2ccc(Cl)cc2)C(=O)c2ccccc2C1=O [ethyl 3-[(4-chlorophenyl)methyl]-1,4-bis(oxidanylidene)naphthalene-2-carboxylate]",22.2 µM
5,Cc1ccc(S(=O)(=O)Nc2c(O)ccc3ccccc23)cc1 [4-methyl-N-(2-oxidanylnaphthalen-1-yl)benzenesulfonamide],27.4 µM
6,COC(=O)c1ccc(NC(=O)CSc2n[nH]c(-c3ccncc3)n2)cc1,22.5 µM
7,"CCCCNC(=O)c1sc(=S)n2c1[nH]c(=O)c1ccc(C(=O)NCCc3ccc(OC)c(OC)c3)cc12 [3-N-butyl-8-N-[2-(3,4-dimethoxyphenyl)ethyl]-5-oxo-1-sulfanylidene-4H-[1,3]thiazolo[3,4-a]quinazoline-3,8-dicarboxamide]",21.2 µM
8,"COc1ccc(NC(=O)CSc2ccc(-c3cccnc3)nn2)c(OC)c1 [N-(2,4-dimethoxyphenyl)-2-[[6-(3-pyridinyl)-3-pyridazinyl]thio]acetamide]",21.5 µM
9,"O=S(=O)(Nc1cc(Sc2nc[nH]n2)c(O)c2ccccc12)c1ccccc1 [N-[4-oxidanyl-3-(1H-1,2,4-triazol-5-ylsulfanyl)naphthalen-1-yl]benzenesulfonamide]",57.8 µM
10,COC1=CC(=O)C(C2CC(=O)c3c(O)cc(O)cc3O2)=CC1=O (stereo unspecified) [SMR001565628],35.9 µM
11,"Cc1oc2c(c1C(=O)c1ccccc1)C(=O)C(=O)c1ccccc1-2 [2-methyl-3-(phenylcarbonyl)benzo[g][1]benzofuran-4,5-dione]",78.3 µM
